System: colistin (polymyxin E, or PME) resistant bacterium S. maltophilia
Assay: Spot test on lawn of colistin resistant bacterium
Type: cell-based
Conditions: 10 μL spotted, 37° C., 2 days

SMILES: O=C(O)CC[C@@H](C(=O)O)N(CC(=O)O)CC(=O)O [GLDA, N,N-Dicarboxymethyl glutamic acid]
- activity / kill of S. maltophilia lawn: did not work as well as CTAC
